# Source: patent US11752115B2, “PPAR-alpha agonist treatment of neuropsychiatric disorders” (THE BOARD OF TRUSTEES OF THE UNIVERSITY OF ILLINOIS, priority 2017, dated 2023)
# Where two headings read alike, the source gives them in different places.
# Tests used:
# [1] = Contextual fear conditioning, extinction and extinction retention; type: in vivo, mice; conditions: GH mice; 5 mg/kg i.p.
# Experimental: (§1) Contextual fear conditioning. Contextual fear conditioning was performed as previously (25).
# (§2) Conditioning trial. Mice were placed in the chamber and exposed for 8 min to a conditioned stimulus and an electric foot-shock (unconditioned stimulus).
# (§3) Reactivation. 24 h after conditioning, mice were re-exposed for 5 min to the context for retrieval/reactivation and treated immediately after reactivation.
# (§4) Extinction and extinction retention. 24 h after reactivation, mice were re-introduced for 5 min in the chamber once daily for 5 days and freezing time was an index of contextual fear responses. After an interval of 8 days, mice were re-exposed to the chamber to determine extinction retention (25).
# SI mice [2] = experiment: as above; type: in vivo; conditions: PPAR-α KO mice; 5 mg/kg i.p.
# Experimental: as §1, §2, §3, §4
# SI mice [3] = experiment: Elevated plus maze; type: in vivo; conditions: for time spent in the open arms (increase vs vehicle-treated SI mice): […] before test; for prevention of the anxiolytic effect of PEA, vs. PEA 10 mg/kg (FIG. 3D): PEA 10 mg/kg i.p. 1 h before test
# Experimental: Elevated plus maze. Elevated plus maze tests were performed as previously (28). Mice chose between entering open or closed arms that extend from a central platform. An arm entry was scored when four legs were within the arm. Behavior was recorded for 5 min. The time spent and the number of open arm entries were used as index of anxiety-like behavior.
# SI mice [4] = experiment: Forced swim test (FST); type: in vivo
# Experimental: (§5) Forced swim test and tail suspension test. The forced swim test (FST) or a tail suspension test (TST) was performed as previously (30, 31). FST sessions were video-recorded for 6 min and the last 4 min were analyzed (30). TST duration was 6 min. Immobility time was an index of depressive-like behavior.
# SI mice [5] = experiment: Tail suspension test (TST); type: in vivo
# Experimental: as §5
# [6] = tested on: allopregnanolone (Allo) levels; experiment: Brain neurosteroid measurements (GC-MS): Allo; type: in vivo, mice; conditions: for Allo content in the olfactory bulb vs. PEA-treated mice (block of PEA effect): PEA 10 mg/kg i.p. 1 h before sacrifice
# Experimental: (§6) Brain neurosteroid measurements. Extraction, derivatization and quantification of unconjugated neurosteroids was described previously (32). Steroids were extracted and then purified and separated by high-performance liquid chromatography (HPLC) after addition of deuterium-labeled internal standards (25). The aqueous phase (2 ml) containing sulfated neurosteroids underwent a solvolysis. After derivatization, gas chromatography-mass spectrometry analysis in the standard electron impact mode as previously reported (24, 25).
# Pregnenolone (PE) = experiment: Brain neurosteroid measurements (GC-MS): pregnenolone; type: in vivo; conditions: SI mice, 1 h
# Experimental: as §6
# [7] = tested on: Progesterone (Prog) levels; experiment: Brain neurosteroid measurements (GC-MS): progesterone; type: in vivo; conditions: SI mice, 1 h
# Experimental: as §6
# [8] = tested on: 5α-dihydroprogesterone (5α-DHP); experiment: Brain neurosteroid measurements (GC-MS): 5α-DHP; type: in vivo; conditions: SI mice, 1 h
# Experimental: as §6
# [9] = tested on: Allo sulfate (Allo-S) and other sulfated neurosteroids; experiment: Brain sulfated neurosteroid measurements (GC-MS); type: in vivo; conditions: SI mice; for Allo-S, hippocampus (increase): 60 minutes before sacrifice
# Experimental: as §6
# SI mice [10] = experiment: Locomotor activity (Example 1); type: in vivo; conditions: PEA 5, 10, 20 mg/kg i.p., G7 10 mg/kg i.p., G6 3 mg/kg i.p., FIN 50 mg/kg s.c.
# Experimental: Locomotor activity. […] Horizontal sensors beam interruptions measured horizontal activity for a total of 10 min.
# [11] = tested on: early and late adolescent SI mice; conditions: for EC50 dose, reduction of aggression: i.p., 60 min before test; for time after which aggression rebounded (duration of anti-aggressive effect): early and late adolescent SI mice
# Experimental: Resident-Intruder Test. To test aggression, a male intruder mouse of the same strain as the resident mouse, was placed in a resident home cage (24 cm×17 cm×12 cm) and resident-intruder interactions were videotaped for 10 min. Aggressive behavior of SI mice was characterized by an initial pattern of exploratory activity around the intruder, followed by rearing and tail rattle, accompanied within a few seconds by wrestling and/or a violent biting attacks. The total number of wrestling and attacks during the 10 min observation period was measured as previously described (Pinna et al., 2003, 2005), 60 min after drug administration. For every drug studied, SI mice were first exposed to three behavioral sessions, and then the average of basal aggression level for every single SI mouse was calculated; 2 days later, aggression levels following treatment were tested. Treated animals showing a reduction of the number of attacks less than 30% vs. the respective basal control values were considered as “low- to non-responders.”
# Statistical Analyses. Results are presented as means±SEMs unless otherwise indicated. Student's t-test, one-way ANOVA and two-way ANOVA repeated measures followed by Bonferroni post hoc test were performed to analyze experimental data; significance was set at p<0.05. EC50 values were calculated from dose-response curves analyzed by the “quantal dose-response: probits test” using the computer program of Tallarida and Murray equipped with a statistical package (Tallarida and Murray, 1987). Statistical comparisons among the different EC50s were performed with the “cohort package software.” (available at cohort.com).
# [12] = tested on: early and late adolescent SI mice; experiment: Locomotor activity (Example 2); conditions: all doses tested, i.p., 60 min before test
# [13] = tested on: cannabinoid receptor type 1 (CB1); conditions: direct activation of CB1 (Vallée et al., 2014); cited from earlier work
# PPD patients = conditions: intravenous infusions, vs only 9% of placebo-treated; cited from earlier work
# TNF-α = conditions: depressed patients, responders [82]; cited from earlier work
# [14] = PPAR-α KO SI mice, 10 mg/kg i.p., 60 minutes before test
# [15] = SI mice, 10 mg/kg i.p., 1 h before test
smiles,measurement,setting,value
"CCCCCCCCCCCCCCCC(=O)NCCO [PEA, N-Palmitoylethanolamine]",contextual fear responses in GH mice,[1],failed to affect contextual fear responses
same,contextual fear responses in PPAR-α KO mice,SI mice [2],failed to affect contextual fear responses
same,anxiolytic effect in GH mice (elevated plus maze),"SI mice [3]; GH mice, 5-10 mg/kg i.p.",had no effect
same,number of entries in the open arms (vs vehicle),SI mice [3]; [14],+6%
same,time spent in the open arms (vs vehicle),SI mice [3]; [14],−1%
same,time of immobility in the FST in GH-control animals,"SI mice [4]; GH-control mice, 10 mg/kg",lack of effect
same,time of immobility in the FST vs vehicle-treated mice,"SI mice [4]; PPAR-α KO mice, 10 mg/kg i.p.",+5%
same,time of immobility in the TST in GH-control animals,"SI mice [5]; GH-control mice, 10 mg/kg",lack of effect
same,time of immobility in the TST vs vehicle-treated mice,"SI mice [5]; PPAR-α KO mice, 10 mg/kg i.p.",+12%
same,"Allo concentrations, olfactory bulb of GH mice","[6]; GH mice, 20 mg/kg i.p., 60 minutes before sacrifice",does not modify
same,"Allo levels, olfactory bulb of PPAR-α KO mice","[6]; SI PPAR-α KO mice, 10 mg/kg i.p., 1 h before sacrifice",failed to affect
same,Allo levels in the serum (peripheral levels),"[6]; SI mice, 10 mg/kg i.p., 1 h before sacrifice",failed to change
same,"Allo levels, striatum","[6]; SI mice, 5, 10 and 20 mg/kg i.p., 1 h",failed to change
same,"Pregnenolone (PE), olfactory bulb (increase)",Pregnenolone (PE); 5 mg/kg i.p.,+50%
same,"Pregnenolone (PE), olfactory bulb (increase)",Pregnenolone (PE); 10 mg/kg i.p.,+69%
same,"Progesterone (Prog) levels, striatum (increase)",[7]; 10 mg/kg i.p.,+356%
same,"Progesterone (Prog) levels, amygdala (increase)",[7]; 20 mg/kg i.p.,+223%
same,"Progesterone (Prog) levels, hippocampus (increase)",[7]; 20 mg/kg i.p.,+3128%
same,"Progesterone (Prog) levels, striatum (increase)",[7]; 20 mg/kg i.p.,+594%
same,"5α-dihydroprogesterone (5α-DHP), hippocampus (increase)",[8]; 10 mg/kg i.p.,+64%
same,"5α-dihydroprogesterone (5α-DHP), hippocampus (increase)",[8]; 20 mg/kg i.p.,+87%
same,"Allo-S, hippocampus (increase)",[9]; 10 mg/kg i.p.,+100%
same,"Allo-S, hippocampus (increase)",[9]; 20 mg/kg i.p.,+104%
same,"other sulfated neurosteroid levels (PE sulfate, PA sulfate, DHEA sulfate)","[9]; olfactory bulb and hippocampus, 5, 10 and 20 mg/kg i.p.",did not affect
same,sedation / effect on locomotor activity,SI mice [10],do not induce sedation
same,reduction of the number of attacks vs. basal value,"[11]; early SI mice, 10 mg/kg i.p.",−57%
same,reduction of the number of attacks vs. basal value,"[11]; early SI mice, 15 mg/kg i.p.",−75%
same,reduction of the number of attacks vs. basal value,"[11]; early SI mice, 20 mg/kg i.p.",−86%
same,"EC50 dose, reduction of aggression",[11]; early adolescent SI mice (PND 21),8 mg/kg
same,reduction of the number of attacks vs. basal value,"[11]; late SI mice, 10 mg/kg i.p.",−81%
same,reduction of the number of attacks vs. basal value,"[11]; late SI mice, 15 mg/kg i.p.",−84%
same,reduction of the number of attacks vs. basal value,"[11]; late SI mice, 20 mg/kg i.p.",−91%
same,"EC50 dose, reduction of aggression",[11]; late adolescent SI mice (PND 45),6.5 mg/kg
same,duration of anti-aggressive effect,"[11]; single dose 10 mg/kg and 15 mg/kg, late SI adolescent mice",less than 3 days
same,time after which the effect was extinguished,"[11]; single dose 20 mg/kg, late SI mice",5 days
same,duration of anti-aggressive effect (persisted),"[11]; single dose 20 mg/kg, late adolescent SI mice",3 days
same,time after which aggressive behavior was reinstated,"[11]; single dose 10, 15, and 20 mg/kg, early SI mice",3 days
same,time after which aggressive behavior was reinstated,"[11]; single dose 10 and 15 mg/kg, late SI mice",3 days
"CNCC[C@H](Oc1ccc(C(F)(F)F)cc1)c1ccccc1 [S-FLX, S-fluoxetine]",reduction in the number of attacks vs. basal value,"[11]; late SI mice, 0.75 mg/kg i.p.",−52%
same,time after which aggression rebounded (duration of anti-aggressive effect),[11]; single dose 0.375 mg/kg,1 days
same,time after which aggression rebounded (duration of anti-aggressive effect),[11]; single dose 0.75 mg/kg and […],3 days
same,exploratory / locomotor activity,[12],did not reduce
"CCCCCc1cc(O)c2c(c1)OC(C)(C)[C@@H]1CCC(C)=C[C@@H]21 [THC, 19-tetrahydrocannabinol]",increase of the synthesis of pregnenolone,[13],30 fold
"CC(C)OC(=O)C(C)(C)Oc1ccc(C(=O)c2ccc(Cl)cc2)cc1 [fenofibrate, Fenofibrate]",time spent in the open arms (increase vs vehicle-treated SI mice),"SI mice [3]; SI mice, 7.5 mg/kg s.c.",+88%
same,time spent in the open arms (increase vs vehicle-treated SI mice),"SI mice [3]; SI mice, 30 mg/kg s.c.",+442%
same,time spent in the open arms (increase vs vehicle-treated SI mice),"SI mice [3]; SI mice, 120 mg/kg s.c.",+552%
same,sedation / effect on locomotor activity,SI mice [10],do not induce sedation
CC(=O)[C@H]1CC[C@H]2[C@@H]3CC[C@H]4C[C@H](O)CC[C@]4(C)[C@H]3CC[C@]12C [allopregnanolone],patients with rapid and long lasting remission of depressive symptoms,PPD patients,70%
"CC(C)(C)NC(=O)[C@H]1CC[C@H]2[C@@H]3CC[C@H]4NC(=O)C=C[C@]4(C)[C@H]3CC[C@]12C [FIN, Finasteride]","prevention of the anxiolytic effect of PEA, vs. PEA 10 mg/kg (FIG. 3D)","SI mice [3]; SI mice, 50 mg/kg s.c. 2.5 h before test",−68%
same,Allo content in the olfactory bulb vs. PEA-treated mice (block of PEA effect),"[6]; SI mice, 50 mg/kg s.c. 2.5 h before sacrifice",−60%
same,sedation / effect on locomotor activity,SI mice [10],do not induce sedation
"CC(C)(Sc1ccc(CCN(CCCCC2CCCCC2)C(=O)NC2CCCCC2)cc1)C(=O)O [G7, GW7647]",number of entries in the open arms (change vs vehicle-treated SI mice),SI mice [3]; [15],+247%
same,time spent in the open arms (change vs vehicle-treated SI mice),SI mice [3]; [15],+506%
same,"Allo levels, olfactory bulb (increase vs vehicle-treated SI mice)","[6]; SI mice, 10 mg/kg i.p., 1 h",+89%
same,sedation / effect on locomotor activity,SI mice [10],do not induce sedation
"CCC(=O)NC[C@H](Cc1ccc(OCCc2nc(-c3ccccc3)oc2C)cc1)N/C(C)=C\C(=O)c1ccc(C(F)(F)F)cc1 [G6, GW6471]","prevention of the anxiolytic effect of PEA, vs. PEA 10 mg/kg (FIG. 3D)","SI mice [3]; SI mice, 3 mg/kg i.p. […] before test",−78%
same,Allo content in the olfactory bulb vs. PEA-treated mice (block of PEA effect),"[6]; SI mice, 3 mg/kg i.p. […] before sacrifice",−48%
same,sedation / effect on locomotor activity,SI mice [10],do not induce sedation
CN(C)CCC[C@@]1(c2ccc(F)cc2)OCc2cc(C#N)ccc21 [escitalopram],lower expression of TNF-α after successful treatment,TNF-α,30%
